Legend:
[1] = system: Trx, JNK, p38MAPK, PARP in HCT116 cells; assay: Cell death signaling western blots (Trx oxidation, phospho-JNK, phospho-p38MAPK, cleaved-PARP); settings: GSH-depleted HCT116, 7 h or 24 h
Protocol: Cells extracts were analyzed by SDS-PAGE either under reducing conditions or under non-reducing conditions in the case of Trx blot followed by blots anti-phospho-JNK, anti-phospho-p38MAPK, anti-cleaved-PARP and anti-Trx. Results are representative of three independent experiments.
After 2 h at 4° C., lysates were clarified by centrifugation and protein amounts were measured using the BCA assay (Pierce, Thermo scientific).
Equal amounts of proteins were resolved by SDS-PAGE under either non-reducing or reducing (5% 2-mercaptoethanol, 20 min at 60° C.) conditions, using 4-20% gels (Novex, Invitrogen), then subjected to semi-dry electrophoretic transfer onto nitrocellulose membranes.

TrxR in MDA-MB-231 cells = assay: Endogenous TrxR activity (DTNB reduction assay); assay type: cell-based, human; settings: GSH-depleted MDA-MB-231; iniparib 100 μM, Auranofin 1 μM, up to 4 h
From the text: Initial velocities were derived from linear regression analyses and then plotted in double reciprocal plots to obtain the half time of TrxR inhibition using an one phase exponential decay analysis (Prism, GraphPad software).

TrxR in HCT116 cells = target: T1, TrxR in HCT116 cells (Homo sapiens, UniProt Q16881); assay: Endogenous TrxR activity in cell lysates (DTNB reduction assay); assay type: cell-based
T1 sequence (Q16881 1-649): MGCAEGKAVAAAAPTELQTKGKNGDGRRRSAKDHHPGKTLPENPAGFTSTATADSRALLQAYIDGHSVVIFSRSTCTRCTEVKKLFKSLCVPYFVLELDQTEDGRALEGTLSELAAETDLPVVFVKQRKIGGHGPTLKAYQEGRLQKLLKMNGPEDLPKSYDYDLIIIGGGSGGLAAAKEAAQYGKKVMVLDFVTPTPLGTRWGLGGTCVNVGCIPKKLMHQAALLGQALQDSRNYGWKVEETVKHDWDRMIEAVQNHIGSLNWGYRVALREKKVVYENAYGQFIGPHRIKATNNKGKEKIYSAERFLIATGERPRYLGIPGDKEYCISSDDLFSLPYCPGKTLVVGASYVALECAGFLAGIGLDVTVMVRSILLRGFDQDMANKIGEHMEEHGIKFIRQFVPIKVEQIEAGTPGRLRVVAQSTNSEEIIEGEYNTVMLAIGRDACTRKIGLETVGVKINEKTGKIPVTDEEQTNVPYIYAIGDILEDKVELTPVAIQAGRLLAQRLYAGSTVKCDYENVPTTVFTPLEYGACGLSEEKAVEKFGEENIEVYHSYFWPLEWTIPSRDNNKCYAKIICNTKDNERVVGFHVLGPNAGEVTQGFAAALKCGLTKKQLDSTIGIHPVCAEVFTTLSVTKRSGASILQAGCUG

[2] = target: T2, TrxR1 and other protein targets in HCT116 cells (Homo sapiens, UniProt Q16881)
T2 sequence (Q16881 1-499 isoform Q16881-5): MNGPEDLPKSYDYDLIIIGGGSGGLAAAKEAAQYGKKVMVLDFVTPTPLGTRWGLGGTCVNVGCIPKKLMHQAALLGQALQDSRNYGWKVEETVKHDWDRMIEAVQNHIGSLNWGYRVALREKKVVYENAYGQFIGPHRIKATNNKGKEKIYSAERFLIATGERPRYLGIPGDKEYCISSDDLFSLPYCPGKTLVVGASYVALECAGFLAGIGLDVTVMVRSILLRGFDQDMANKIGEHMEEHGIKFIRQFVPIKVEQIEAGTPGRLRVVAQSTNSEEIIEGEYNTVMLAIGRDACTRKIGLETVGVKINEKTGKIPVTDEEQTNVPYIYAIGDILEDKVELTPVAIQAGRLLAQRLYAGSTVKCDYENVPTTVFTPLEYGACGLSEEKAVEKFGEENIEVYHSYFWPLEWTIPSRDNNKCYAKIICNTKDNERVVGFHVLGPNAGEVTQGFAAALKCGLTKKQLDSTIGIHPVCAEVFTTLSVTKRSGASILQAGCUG
Protocol: (§1) TrxR1 immunoprecipitates (FIG. 17A) and cells extracts (FIG. 17B) were analysed by SDS-PAGE under reducing conditions followed by streptavidin-HRP blot and TrxR1 blot.
(§2) Clarified octyl-glucoside lysates (12 mg proteins) were combined with anti-TrxR1 or anti-TrxR2 monoclonal antibody coupled to protein G plus agarose (Santa Cruz Biotechnology) and mixed overnight at 4° C. Beads were recovered by centrifugation for 2 min at 1,000×g and extensively washed in octyl-glucoside lysis buffer. Precipitated complexes were eluted by incubating the beads for 20 min at 60° C. in SDS sample buffer. The amount of immunoprecipitated TrxR1 and TrxR2 was systematically checked by blots anti-TrxR1 and anti-TrxR2, respectively.

[3] = system: TrxR1 and other protein targets in HCT116 cells; settings: GSH-depleted HCT116
Protocol: as §1, §2

CC(=O)OC[C@H]1O[C@@H]([S-])[C@H](OC(C)=O)[C@@H](OC(C)=O)[C@@H]1OC(C)=O.CCP(CC)CC.[Au+] [Auranofin]
p38MAPK and JNK phosphorylation [1]: JNK and p38MAPK activation | TrxR reductase activity (TrxR in MDA-MB-231 cells): inhibition of the reductase activity | inhibition of TrxR activity (TrxR in HCT116 cells; 1 μM, immediately after adding the compound to the cells): inhibited almost completely | IC50 (TrxR in HCT116 cells; 4 h treatment, BSO-pretreated HCT116): 70 nM | TrxR1 labeling with Iniparib-biotin after preincubation ([2]; 90-min preincubation of GSH-depleted HCT116 (auranofin 10 μM or Iniparib 100 μM)): abolished | concentration preventing Iniparib-biotin labeling of the 55-kDa protein attributed to TrxR ([2]; GSH-depleted HCT116): 0.1 to 0.3 µM | concentration inhibiting all adduct formation with Iniparib-biotin [3]: 1 to 3 µM
